Test results as given in patent US9617258B2, “Pyrrolo[2,3-d]pyrimidinyl, pyrrolo[2,3-b]pyrazinyl and pyrrolo[2,3-d]pyridinyl acrylamides” (Pfizer Inc., priority 2013, dated 2017).

assay: Stability of JAK3 covalent inhibitors in human whole blood; format: in vitro ADME; conditions: both sexes, whole blood, 37° C., read-out: Human blood stability t1/2;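 note: parent compound remaining over incubation time quantified by LC-MS/MS as peak area ratio against an internal standard, using pooled K2-EDTA blood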

Q: Which half-life at 1 μM does the source give for `C=CC(=O)N1C[C@H](Nc2ncnc3[nH]ccc23)C[C@H](OC)C1` [Example 19, 1-((3R,5S)-3-((7H-Pyrrolo[2,3-d]pyrimidin-4-yl)amino)-5-methoxypiperidin-1-yl)prop-2-en-1-one] here?
A: Its half-life at 1 μM is 3.51 h.

Q: For `C=CC(=O)N1CCC[C@@H](Nc2ncnc3[nH]cc(-c4cncc(F)c4)c23)C1` [Example 23, 1-[(3R)-3-{[5-(5-fluoropyridin-3-yl)-7H-pyrrolo[2,3-d]pyrimidin-4-yl]amino}piperidin-1-yl]prop-2-en-1-one], which half-life at 1 μM is on record?
A: The half-life at 1 μM was greater than 6 h.

Q: With `C=CC(=O)N1CCC[C@@H](Nc2ncnc3[nH]cc(-c4cncc(OC)c4)c23)C1` [Example 24, 1-[(3R)-3-{[5-(5-methoxypyridin-3-yl)-7H-pyrrolo[2,3-d]pyrimidin-4-yl]amino}piperidin-1-yl]prop-2-en-1-one] as the compound, how does the half-life at 1 μM read?
A: Its half-life at 1 μM is greater than 6 h.

Q: With `C=CC(=O)N1CCC[C@@H](Nc2ncnc3[nH]cc(-c4cccnc4)c23)C1` [Example 26, 1-[(3R)-3-{[5-(pyridin-3-yl)-7H-pyrrolo[2,3-d]pyrimidin-4-yl]amino}piperidin-1-yl]prop-2-en-1-one] as the compound, how does the half-life at 1 μM read?
A: Its half-life at 1 μM is greater than 6 h.

Q: Which half-life at 1 μM does the source give for `C=CC(=O)N1CCC[C@@H](Nc2ncnc3[nH]cc(-c4ccc(C(=O)N(C)C)cc4)c23)C1` [Example 27, 4-(4-{[(3R)-1-acryloylpiperidin-3-yl]amino}-7H-pyrrolo[2,3-d]pyrimidin-5-yl)-N,N-dimethylbenzamide] here?
A: The half-life at 1 μM was 0.767 h.

Q: For `C=CC(=O)N1CCC[C@@H](Nc2ncnc3[nH]cc(-c4cnn(C)c4)c23)C1` [Example 28, 1-[(3R)-3-{[5-(1-methyl-1H-pyrazol-4-yl)-7H-pyrrolo[2,3-d]pyrimidin-4-yl]amino}piperidin-1-yl]prop-2-en-1-one], which half-life at 1 μM is on record?
A: The half-life at 1 μM was greater than 6 h.

Q: Which half-life at 1 μM does the source give for `C=CC(=O)N1CCC[C@@H](Nc2ncnc3[nH]cc(-c4ccc(OCC)nc4)c23)C1` [Example 33, 1-[(3R)-3-{[5-(6-ethoxypyridin-3-yl)-7H-pyrrolo[2,3-d]pyrimidin-4-yl]amino}piperidin-1-yl]prop-2-en-1-one] here?
A: Its half-life at 1 μM is greater than 6 h.

Q: With `C=CC(=O)N1CCC[C@@H](Nc2ncnc3[nH]cc(-c4ccc5c(cnn5C)c4)c23)C1` [Example 34, 1-[(3R)-3-{[5-(1-methyl-1H-indazol-5-yl)-7H-pyrrolo[2,3-d]pyrimidin-4-yl]amino}piperidin-1-yl]prop-2-en-1-one] as the compound, how does the half-life at 1 μM read?
A: The half-life at 1 μM was greater than 6 h.

Q: Which half-life at 1 μM does the source give for `C=CC(=O)N1CCC[C@@H](Nc2ncnc3[nH]cc(-c4ccc(N5CCOCC5)nc4)c23)C1` [Example 36, 1-[(3R)-3-({5-[6-(morpholin-4-yl)pyridin-3-yl]-7H-pyrrolo[2,3-d]pyrimidin-4-yl}amino)piperidin-1-yl]prop-2-en-1-one] here?
A: Its half-life at 1 μM is greater than 6 h.

Q: For `C=C(C(=O)N1CC[C@@H]2CCN(c3ncnc4[nH]ccc34)[C@@H]2C1)C(F)(F)F` [Example 41, 1-((3aS,7aS)-1-(7H-Pyrrolo[2,3-d]pyrimidin-4-yl)hexahydro-1H-pyrrolo[2,3-c]pyridin-6(2H)-yl)-2-(trifluoromethyl)prop-2-en-1-one], which half-life at 1 μM is on record?
A: Its half-life at 1 μM is 0.0467 h.

Q: With `C=CC(=O)N1CCC[C@@H](Nc2ncnc3[nH]cc(F)c23)C1` [Example 42, 1-{(3R)-3-[(5-fluoro-7H-pyrrolo[2,3-d]pyrimidin-4-yl)amino]piperidin-1-yl}prop-2-en-1-one] as the compound, how does the half-life at 1 μM read?
A: The half-life at 1 μM was greater than 6 h.

Q: For `C=CC(=O)N1CCC[C@@H](Nc2ncnc3[nH]cc(C)c23)C1` [Example 43, 1-{(3R)-3-[(5-methyl-7H-pyrrolo[2,3-d]pyrimidin-4-yl)amino]piperidin-1-yl}prop-2-en-1-one], which half-life at 1 μM is on record?
A: Its half-life at 1 μM is 4.57 h.

Q: For `C=CC(=O)N1CCC[C@@H](Nc2ncnc3[nH]cc(CC)c23)C1` [Example 44, 1-{(3R)-3-[(5-ethyl-7H-pyrrolo[2,3-d]pyrimidin-4-yl)amino]piperidin-1-yl}prop-2-en-1-one], which half-life at 1 μM is on record?
A: Its half-life at 1 μM is 2.77 h.

Q: With `C=CC(=O)N1CCC[C@@H](Nc2ncnc3[nH]cc(C#N)c23)C1` [Example 45, 4-{[(3R)-1-acryloylpiperidin-3-yl]amino}-7H-pyrrolo[2,3-d]pyrimidine-5-carbonitrile] as the compound, how does the half-life at 1 μM read?
A: The half-life at 1 μM was greater than 6 h.

Q: For `C=CC(=O)N1CCC[C@@H](Nc2ncnc3[nH]cc(CCOC)c23)C1` [Example 46, 1-[(3R)-3-{[5-(2-methoxyethyl)-7H-pyrrolo[2,3-d]pyrimidin-4-yl]amino}piperidin-1-yl]prop-2-en-1-one], which half-life at 1 μM is on record?
A: Its half-life at 1 μM is greater than 5.74 h.

Q: Which half-life at 1 μM does the source give for `C=CC(=O)N1CCC[C@@H](Nc2ccnc3[nH]cc(C)c23)C1` [Example 47, 1-{(3R)-3-[(3-methyl-1H-pyrrolo[2,3-b]pyridin-4-yl)amino]piperidin-1-yl}prop-2-en-1-one] here?
A: The half-life at 1 μM was 5.26 h.

Q: Which half-life at 1 μM does the source give for `C#Cc1c[nH]c2ncnc(N3CC[C@H]4CCN(C(=O)C=C)C[C@H]43)c12` [Example 48, 1-[(3aS,7aS)-1-(5-ethynyl-7H-pyrrolo[2,3-d]pyrimidin-4-yl)octahydro-6H-pyrrolo[2,3-c]pyridin-6-yl]prop-2-en-1-one] here?
A: The half-life at 1 μM was 2.5 h.

Q: With `C=CC(=O)N1CC(Nc2ncnc3[nH]ccc23)CCC1CO` (centres unmarked) [Example 52, 1-[2-(Hydroxymethyl)-5-(7H-pyrrolo[2,3-d]pyrimidin-4-ylamino)piperidin-1-yl]prop-2-en-1-one] as the compound, how does the half-life at 1 μM read?
A: The half-life at 1 μM was greater than 5.97 h.

Q: For `C=CC(=O)N1CC[C@@H](F)[C@@H](Nc2ncnc3[nH]ccc23)C1` [Example 54, 1-((3S,4R)-3-((7H-pyrrolo[2,3-d]pyrimidin-4-yl)amino)-4-fluoropiperidin-1-yl)prop-2-en-1-one], which half-life at 1 μM is on record?
A: Its half-life at 1 μM is 3.5 h.

Q: For `C=CC(=O)N1C[C@H](Nc2ncnc3[nH]ccc23)C[C@H](N(C)C)C1` [Example 57, 1-((3R,5S)-3-((7H-Pyrrolo[2,3-d]pyrimidin-4-yl)amino)-5-(dimethylamino)piperidin-1-yl)prop-2-en-1-one], which half-life at 1 μM is on record?
A: Its half-life at 1 μM is 1.35 h.

Q: Which half-life at 1 μM does the source give for `C=CC(=O)N1C[C@@H](C#N)C[C@@H](Nc2ncnc3[nH]ccc23)C1` [Example 58, (3S,5R)-5-((7H-pyrrolo[2,3-d]pyrimidin-4-yl)amino)-1-acryloylpiperidine-3-carbonitrile] here?
A: Its half-life at 1 μM is 0.583 h.

Q: Which half-life at 1 μM does the source give for `C=CC(=O)N1CC[C@]2(C)CCN(c3ncnc4[nH]ccc34)[C@@H]2C1` [Example 59, 1-((3aS,7aS)-3a-Methyl-1-(7H-pyrrolo[2,3-d]pyrimidin-4-yl)hexahydro-1H-pyrrolo[2,3-c]pyridin-6(2H)-yl)prop-2-en-1-one] here?
A: Its half-life at 1 μM is 3.07 h.

Q: With `C=CC(=O)N1C[C@H](O)C[C@@H](Nc2ncnc3[nH]ccc23)C1` [Example 60, 1-((3R,5R)-3-((7H-Pyrrolo[2,3-d]pyrimidin-4-yl)amino)-5-hydroxypiperidin-1-yl)prop-2-en-1-one] as the compound, how does the half-life at 1 μM read?
A: The half-life at 1 μM was greater than 6 h.

Q: For `C=CC(=O)N1CCC[C@@H](Nc2nc(Nc3cccnc3)nc3[nH]ccc23)C1` [Example 63, 1-[(3R)-3-{[2-(Pyridin-3-ylamino)-7H-pyrrolo[2,3-d]pyrimidin-4-yl]amino}piperidin-1-yl]prop-2-en-1-one], which half-life at 1 μM is on record?
A: Its half-life at 1 μM is greater than 6 h.

Q: Which half-life at 1 μM does the source give for `C=CC(=O)N1CCC[C@@H](Nc2ncnc3[nH]cc(-c4ccc(C)nc4)c23)C1` [Example 66, (R)-1-(3-((5-(6-methylpyridin-3-yl)-7H-pyrrolo[2,3-d]pyrimidin-4-yl)amino)piperidin-1-yl)prop-2-en-1-one] here?
A: The half-life at 1 μM was greater than 6 h.

Q: Which half-life at 1 μM does the source give for `C=CC(=O)N1CC(Nc2ncnc3[nH]ccc23)CCC1(C)C` (centres unmarked) [Example 67, 1-(5-((7H-Pyrrolo[2,3-d]pyrimidin-4-yl)amino)-2,2-dimethylpiperidin-1-yl)prop-2-en-1-one] here?
A: Its half-life at 1 μM is greater than 6 h.
